Test results reported in BigSolDB 2.1.

CC(C)(C)C(=O)C(Oc1ccc(Cl)cc1)n1cncn1 (stereo not given)
solubility (mole fraction)
Conditions	288.15 K	293.15 K	298.15 K	303.15 K	308.15 K	313.15 K	318.15 K	323.15 K	328.15 K	333.15 K
in acetonitrile	0.011	0.0132	0.0162	0.0196	0.0238	0.0285	0.034	0.0407	0.0479	0.057
in cyclohexane	0.000445	0.00143	0.00382	0.00873	0.0178	0.0315	0.0489	0.0692	0.0869	0.0986
in n-heptane	0.00129	0.00204	0.00321	0.00483	0.00737	0.0111	0.0164	0.0238	0.034	0.0491
in n-hexane	0.000262	0.000539	0.00104	0.00197	0.0035	0.00592	0.00984	0.0156	0.0233	0.0354
in p-xylene	0.0631	0.0846	0.112	0.147	0.188	0.239	0.299	0.372	0.456	0.553
in toluene	0.0916	0.119	0.154	0.192	0.235	0.282	0.333	0.381	0.431	0.475
